# Laboratory results taken from US20060167098A1, “Method for the treatment of diseases linked to an accumulation of triglycerides and cholesterol” (Institut National De La Sante ET De LA Recherche Medicale …, priority 2003, published 2006).
# Assay: Plasma lipids in ob/ob mice, 6 weeks, 15 hours overnight fast
# Type: in vivo
# Conditions: 100 mg/kg/day 6 weeks, fasted 15 hours
# Protocol: Plasma lipids (triglycerides, total cholesterol, phospholipids) were measured on an automatic analyser (Hitachi 717®). The commercial kits used to assess triglycerides, total cholesterol and phospholipids on this analyser were all from bioMérieux (references 61238, 61219 and 61491, respectively). Plasma non esterified fatty acids (NEFA) were assessed by using a commercial kit (Wako, reference 994-75409). Hepatic and plasma lipids were performed at the end of six weeks of treatment in animals that have been fasted for 48 hours. Triglycerides and HDL-cholesterol were also assessed after 2 months (in the fed state) or after 4 months of treatment (after an overnight fast).
# Plasma HDL-cholesterol and alanine aminotransferase (ALT) were measured on an automatic analyser (Olympus AU400®) with commercial kits (Olympus Diagnostica GmbH, references OSR6187 and OSR6107, respectively).
# In a second series of experiments, plasma lipids were assessed in ob/ob mice fed with a standard diet and receiving or not of 100 mg/kg/day of β-aminoisobutyric acid (BAIBA) in the drinking water during 6 weeks, but at the end of the experiment mice were fasted for only 15 hours (i.e. for an overnight fast). Samples of blood were then collected in controls mice (n=4) and in mice treated with BAIBA (n=5) for the assessment of plasma triglycerides, total cholesterol and HDL-cholesterol. In this experiment, BAIBA decreased plasma triglycerides and total cholesterol by 10 and 8%, respectively. Indeed, plasma triglycerides were 1.35±0.07 and 1.22±0.06 mmol/L, respectively in control and treated ob/ob mice, whereas plasma total cholesterol was 6.78±0.51 and 6.24±0.11 mmol/L, respectively in control and treated mice. […] Indeed, HDL-cholesterol was 4.73±0.31 and 4.92±0.24 mmol/L, respectively in control and treated mice.
smiles,measurement,value
"CC(CN)C(=O)O (racemic) [BAIBA, D,L-β-Aminoisobutyric acid]",HDL-cholesterol,4.92 ± 0.24 mmol/L
same,decrease of plasma total cholesterol,8%
same,decrease of plasma triglycerides,10%
same,plasma total cholesterol,6.24 ± 0.11 mmol/L
same,plasma triglycerides,1.22 ± 0.06 mmol/L
